The target in data set [1] is human norepinephrine transporter (Homo sapiens (Human), UniProt P23975). Nature of the data set: Human NET (norepinephrine transporter) uptake assay. The conditions noted are these: read-out: hNET Ki. The class given is cell-based. The protocol: This protocol was designed to measure inhibition of uptake by the human norepinephrine transporter. […] The Assay Buffer (AB) was 1×HBSS and 0.02 M HEPES.
(§1) The HEK293F cells were transfected with the human norepinephrine transporter and frozen in 1 mL aliquots at about 1E+07 cells/mL. On the day of the experiment, the cells were removed from −80° C. or liquid nitrogen and thawed in a room temperature water bath. The cells were dilute to about 1-2E+06 with Freestyle medium. A 1 mL sample (1:2 dilution) was prepared, and the cells were counted. The cells were spun at 1100 rpm for 5 minutes, and the medium was aspirated off. The cells were resuspend in medium at 1.5E+06 cells/mL for about 60,000 cells per well. 40 μL of cells were dispensed per well in the Biocoat plates. The plates were spun at 1100 rpm for 1 minute to improve homogeneity of the cell layer and were incubated at 37° C. for a minimum of 3 hours.
(§2) 12 μL of test compound (10 mM) in DMSO was added to the wells, and nomifensine was used as a control. […] The neurotransmitter transporter dye was prepared in AB prior to use.
(§3) Due to the proprietary nature of the dye formulation, all dye concentrations were expressed as a percentage of the vendor-recommended dye reconstitution. Thus, the above calculations were valid when both [dye] and Km were expressed in the same units (%). Compounds were tested in triplicate (n=3).

The target of another data set is CYP3A4 (Homo sapiens (Human), UniProt P08684). Nature of the data set: Cytochrome P450 inhibition assay, recombinant CYP3A4 (BFC substrate). The note with it: recombinant enzyme. The class given is in vitro ADME.
Sequence of CYP3A4 (P08684 whole entry): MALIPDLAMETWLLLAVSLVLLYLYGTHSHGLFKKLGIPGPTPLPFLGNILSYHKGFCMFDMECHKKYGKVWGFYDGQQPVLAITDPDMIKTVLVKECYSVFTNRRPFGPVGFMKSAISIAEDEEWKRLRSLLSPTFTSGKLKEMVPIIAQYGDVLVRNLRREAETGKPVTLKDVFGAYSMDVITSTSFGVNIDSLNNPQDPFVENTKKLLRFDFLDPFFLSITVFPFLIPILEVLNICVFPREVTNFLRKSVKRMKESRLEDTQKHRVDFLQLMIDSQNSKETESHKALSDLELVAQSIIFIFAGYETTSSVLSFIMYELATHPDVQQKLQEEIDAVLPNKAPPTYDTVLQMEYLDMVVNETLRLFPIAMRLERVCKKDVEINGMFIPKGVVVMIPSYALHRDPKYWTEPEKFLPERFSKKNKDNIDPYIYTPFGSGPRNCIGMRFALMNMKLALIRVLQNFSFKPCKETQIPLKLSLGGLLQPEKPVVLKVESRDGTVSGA
Data set [2] can be described thus: pKa of basic centres (Table 1). The class given is physicochemical.
Another data set addresses CYP2D6 (Homo sapiens (Human), UniProt P10635). Nature of the data set: Cytochrome P450 inhibition assay, recombinant CYP2D6 (MAMC substrate). The class given is in vitro ADME. The conditions noted are these: recombinant enzyme.
The target in data set [3] is human serotonin transporter (Homo sapiens (Human), UniProt P31645). Nature of the data set: Human SERT (serotonin transporter) uptake assay. The format is cell-based. The conditions noted are these: read-out: hSERT Ki. The protocol:
This protocol was designed to measure inhibition of uptake by the human serotonin transporter. […] The Assay Buffer (AB) was […] and 0.02 M HEPES.
as §1, with “serotonin” for “norepinephrine”
12 μL of test compound (10 mM) in DMSO was added to the wells, and nomifensine was used as a control. Fluoxetine (final assay concentration of 10 μM) was used for background signal. The neurotransmitter transporter dye was prepared in AB prior to use.
as §3

For data set [4], the target named is human dopamine transporter (Homo sapiens (Human), UniProt Q01959). Nature of the data set: Human DAT (dopamine transporter) uptake assay. The class given is cell-based. The note with it: read-out: hDAT Ki. How it is done:
This protocol was designed to measure inhibition of uptake by the human dopamine transporter. […] The Assay Buffer (AB) was 1×HBSS and 0.02 M HEPES.
as §1, with “dopamine” for “norepinephrine”
as §2
Due to the proprietary nature of the dye formulation, all dye concentrations were expressed as a percentage of the vendor-recommended dye reconstitution. Thus, the above calculations were valid when both [dye] and K1 were expressed in the same units (%). Compounds were tested in triplicate (n=3).

[5] abbreviates: first base, e.g., an aliphatic primary, secondary, or tertiary amine, read-out: pKa (Base 1).
The mark [6] stands for this setting: second base in the same molecule (if present), read-out: pKa (Base 2).

Read-outs that look alike come from different tables or passages of the source.

Sequence of human dopamine transporter (Q01959 whole entry): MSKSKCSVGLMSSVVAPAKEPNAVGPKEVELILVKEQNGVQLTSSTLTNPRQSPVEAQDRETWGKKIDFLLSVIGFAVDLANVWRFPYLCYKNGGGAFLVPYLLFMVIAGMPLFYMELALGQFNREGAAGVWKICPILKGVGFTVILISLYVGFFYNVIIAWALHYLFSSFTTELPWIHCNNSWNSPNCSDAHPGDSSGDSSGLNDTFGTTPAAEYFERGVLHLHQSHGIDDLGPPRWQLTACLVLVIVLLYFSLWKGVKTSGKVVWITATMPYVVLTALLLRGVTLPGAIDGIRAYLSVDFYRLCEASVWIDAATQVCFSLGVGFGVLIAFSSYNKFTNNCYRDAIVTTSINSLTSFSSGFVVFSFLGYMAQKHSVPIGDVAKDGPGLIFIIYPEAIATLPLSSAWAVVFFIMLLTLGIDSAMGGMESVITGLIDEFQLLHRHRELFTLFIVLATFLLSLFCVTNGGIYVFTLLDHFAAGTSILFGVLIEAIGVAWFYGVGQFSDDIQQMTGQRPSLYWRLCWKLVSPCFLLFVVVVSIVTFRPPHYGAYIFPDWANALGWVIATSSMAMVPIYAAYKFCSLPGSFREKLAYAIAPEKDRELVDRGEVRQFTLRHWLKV
Sequence of CYP2D6 (P10635 whole entry): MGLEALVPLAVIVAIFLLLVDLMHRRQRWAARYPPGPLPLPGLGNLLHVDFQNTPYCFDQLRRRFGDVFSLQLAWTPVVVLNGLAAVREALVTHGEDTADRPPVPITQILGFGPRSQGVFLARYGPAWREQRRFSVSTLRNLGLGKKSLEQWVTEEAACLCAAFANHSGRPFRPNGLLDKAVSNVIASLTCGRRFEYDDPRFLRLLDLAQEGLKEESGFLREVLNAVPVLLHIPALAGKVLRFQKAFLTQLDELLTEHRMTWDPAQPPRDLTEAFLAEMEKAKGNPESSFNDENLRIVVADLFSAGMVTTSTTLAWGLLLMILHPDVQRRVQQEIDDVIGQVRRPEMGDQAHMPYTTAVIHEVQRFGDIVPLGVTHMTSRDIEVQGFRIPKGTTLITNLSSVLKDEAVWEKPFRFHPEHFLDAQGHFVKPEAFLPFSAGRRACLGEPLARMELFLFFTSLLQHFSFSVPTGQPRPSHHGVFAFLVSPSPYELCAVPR
Sequence of human serotonin transporter (P31645 whole entry): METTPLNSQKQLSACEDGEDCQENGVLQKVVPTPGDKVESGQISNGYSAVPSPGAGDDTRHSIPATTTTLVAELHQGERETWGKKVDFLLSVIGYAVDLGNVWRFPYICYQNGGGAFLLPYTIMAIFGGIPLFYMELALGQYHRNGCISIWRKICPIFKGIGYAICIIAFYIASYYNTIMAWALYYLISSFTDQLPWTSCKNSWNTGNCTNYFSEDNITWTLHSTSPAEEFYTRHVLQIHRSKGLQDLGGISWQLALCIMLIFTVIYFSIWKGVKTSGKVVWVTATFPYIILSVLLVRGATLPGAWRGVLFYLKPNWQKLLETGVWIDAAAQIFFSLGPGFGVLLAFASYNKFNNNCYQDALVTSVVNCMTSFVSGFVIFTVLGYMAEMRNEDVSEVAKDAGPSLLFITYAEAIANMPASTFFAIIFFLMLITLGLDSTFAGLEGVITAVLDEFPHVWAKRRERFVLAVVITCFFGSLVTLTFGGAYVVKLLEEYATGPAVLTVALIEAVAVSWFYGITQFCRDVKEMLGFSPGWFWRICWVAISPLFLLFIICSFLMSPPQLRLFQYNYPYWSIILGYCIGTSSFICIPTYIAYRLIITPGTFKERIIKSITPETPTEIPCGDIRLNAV
Sequence of human norepinephrine transporter (P23975 whole entry): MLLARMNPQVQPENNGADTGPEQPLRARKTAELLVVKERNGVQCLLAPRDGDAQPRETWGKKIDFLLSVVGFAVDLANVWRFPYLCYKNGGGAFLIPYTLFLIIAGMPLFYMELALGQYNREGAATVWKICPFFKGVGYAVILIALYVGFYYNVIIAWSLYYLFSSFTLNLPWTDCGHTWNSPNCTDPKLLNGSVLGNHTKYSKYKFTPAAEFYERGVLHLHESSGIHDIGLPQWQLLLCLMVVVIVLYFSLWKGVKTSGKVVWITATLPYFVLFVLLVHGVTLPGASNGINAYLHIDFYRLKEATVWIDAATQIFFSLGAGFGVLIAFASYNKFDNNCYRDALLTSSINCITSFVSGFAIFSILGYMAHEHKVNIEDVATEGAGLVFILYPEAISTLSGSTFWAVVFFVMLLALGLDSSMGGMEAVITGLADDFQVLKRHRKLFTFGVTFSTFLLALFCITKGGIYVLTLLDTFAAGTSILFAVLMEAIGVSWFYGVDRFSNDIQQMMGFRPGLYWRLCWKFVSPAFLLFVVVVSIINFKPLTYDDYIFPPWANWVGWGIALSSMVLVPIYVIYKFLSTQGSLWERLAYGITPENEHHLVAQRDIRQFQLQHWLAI

Regarding `CNC[C@H](c1ccc2ccccc2c1)[C@H](O)c1cc(F)cc(F)c1` (racemic) [Compound 41], the figures for the Ki in data set [1], in data set [3] and in data set [4] were 0.0032 µM, 0.0525 µM and 0.0106 µM, respectively. For the same compound, the IC50 (commonly the point on the concentration scale where inhibition reaches its midpoint) on CYP3A4 was 19 µM; on CYP2D6 it was 0.13 µM. In data set [2] (setting [5]), the pKa (in general, the pH at which an ionisable group is half protonated) is 9.6.

Consider `CN(C)C[C@H](c1ccc(Cl)c(Cl)c1)[C@H](O)c1ccccc1` (racemic) [Compound 105], for which the Ki (usually the dissociation constant of the complex between target and ligand, obtained from inhibition or displacement) in data set [1] is 0.0646 µM; in data set [3], 0.138 µM; in data set [4], 0.0181 µM. In addition, the IC50 is at least 20 µM on CYP3A4 and 2.1 µM at CYP2D6. Further, the pKa in data set [2] (setting [5]) turned out to be 8.8.

In the case of `CNC[C@H](c1ccc(-c2ccccc2)cc1)[C@H](O)c1ccccc1` (racemic) [Compound 113], the inhibition constant (Ki) in data set [1] was 0.167 µM; in data set [3] it was 0.0052 µM; in data set [4], 1.57 µM. The IC50 at CYP3A4 was determined as 16 µM; at CYP2D6, 0.22 µM. Moreover, in data set [2] (setting [5]), the pKa was 9.8.

On to `CNC[C@H](c1ccc(Cl)cc1)[C@H](O)c1ccccc1` (racemic) [Compound 148], for which the values for the Ki in data set [1], in data set [3] and in data set [4] were 0.0085 µM, 0.191 µM and 0.114 µM, respectively. Besides, the pKa in data set [2] (setting [5]) was 9.7.

Regarding `CNC[C@H](c1ccc(Br)cc1)[C@H](O)c1ccccc1` (racemic) [Compound 149], the values for the Ki in data set [1], in data set [3] and in data set [4] were 0.0077 µM, 0.119 µM and 0.129 µM, respectively. Also, the pKa in data set [2] (setting [5]) was found to be 9.7.

In the case of `CNC[C@@H](c1ccc(Br)c(Cl)c1)[C@H](O)c1ccccc1` (racemic) [Compound 150], the Ki was 0.0063 µM in data set [1], 0.0515 µM in data set [3] and 0.0318 µM in data set [4]. The pKa in data set [2] (setting [5]) was 9.4.

For the compound `CNC[C@H](c1ccc(Cl)c(Cl)c1)[C@H](O)c1ccncc1` (racemic) [Compound 155], the Ki came to 0.0178 µM in data set [1], 0.0737 µM in data set [3] and 0.0466 µM in data set [4]. Moreover, the concentration for half-maximal inhibition (IC50) on CYP3A4 was at least 20 µM; at CYP2D6, 1.4 µM. Also, the pKa in data set [2] (setting [5]) was found to be 9.3; in data set [2] (setting [6]), 5.3.

Regarding `CNC[C@H](c1ccc2ccccc2c1)[C@H](O)c1cc(F)cc(F)c1` (single isomer, unassigned) [Compound 37], the Ki in data set [1] came out at 0.003 µM; in data set [3], 0.0546 µM; in data set [4], 0.0636 µM. The pKa in data set [2] (setting [5]) was found to be 9.6.

Turning to `O[C@@H](c1ccccc1)[C@@H](CNCC(F)(F)F)c1ccc2ccccc2c1` (single isomer, unassigned) [Compound 130], the Ki was 4.57 µM in data set [1], 3.37 µM in data set [3] and 0.0873 µM in data set [4]. Besides, the pKa in data set [2] (setting [5]) stood at 4.6. Besides, the IC50 on CYP2D6 turned out to be 3.7 µM.

Turning to `CNC[C@H](c1ccc2ccccc2c1)[C@@H](O)c1ccncc1Cl` [Compound 7], the Ki was determined as 0.0014 µM in data set [1], 0.0036 µM in data set [3] and 0.0066 µM in data set [4]. Moreover, the results for the pKa in data set [2] (setting [5]) and in data set [2] (setting [6]) were 9.5 and 3, respectively.

Turning to `CNC[C@H](c1ccc2ccccc2c1)[C@H](OCC(=O)NC1CCC1)c1ccccc1` [Compound 8], the inhibitory constant (Ki) in data set [1] was 0.0014 µM; in data set [3], 0.0013 µM; in data set [4], 0.0108 µM. For the same compound, the pKa in data set [2] (setting [5]) is 9.6.

For `CNCC(CCc1ccccc1)[C@@H](O)c1ccccc1` (stereo partly shown) [Compound 27], the values for the Ki in data set [1], in data set [3] and in data set [4] were 0.0023 µM, 0.252 µM and 0.0967 µM, respectively. Further, the “pKa (Base 1)” value in data set [2] (first base, e.g., an aliphatic primary, secondary, or tertiary amine) was 10.1.

On to `CNC[C@H](c1ccc2ccccc2c1)[C@H](OCc1cccn(C)c1=O)c1ccccc1` [Compound 31], for which the results for the Ki in data set [1], in data set [3] and in data set [4] were 0.0024 µM, 0.0019 µM and 0.0246 µM, respectively. The pKa in data set [2] (setting [5]) stood at 9.6.

Consider `CNCC(c1ccc2ccccc2c1)C(OC)c1ccccc1` (stereo not shown) [Compound 38], for which the Ki in data set [1] stood at 0.0031 µM; in data set [3] it was 0.0169 µM; in data set [4] it was 0.0499 µM. Moreover, the pKa in data set [2] (setting [5]) was determined as 9.7.

Regarding `CNC[C@H](c1ccc2ccccc2c1)[C@H](OCC(=O)Nc1ccccc1)c1ccccc1` [Compound 45], the Ki came out at 0.0033 µM in data set [1], 0.0024 µM in data set [3] and 0.0089 µM in data set [4]. The pKa in data set [2] (setting [5]) is 9.7.

For the compound `CNC[C@H](c1ccc2ccccc2c1)[C@H](OC)c1ccccc1` [Compound 46], the figures for the Ki in data set [1], in data set [3] and in data set [4] were 0.0034 µM, 0.0242 µM and 0.0375 µM, respectively. In data set [2] (setting [5]), the pKa came out at 9.7.

`CNC[C@H](c1ccc2ccccc2c1)[C@H](OCC(=O)NCCOC)c1ccccc1` [Compound 51]: the Ki stood at 0.0039 µM in data set [1], 0.0026 µM in data set [3] and 0.141 µM in data set [4]. In data set [2] (setting [5]), the pKa turned out to be 9.6.

Turning to `CNC[C@H](c1ccc2ccccc2c1)[C@H](OCC(=O)NCC(F)(F)F)c1ccccc1` [Compound 68], the values for the Ki in data set [1], in data set [3] and in data set [4] were 0.0084 µM, 0.0297 µM and 0.0555 µM, respectively. The pKa in data set [2] (setting [5]) is 9.6.

As to `CNC[C@H](c1ccc2ccccc2c1)[C@H](OCC(=O)N(C)OC)c1ccccc1` [Compound 71], the Ki was found to be 0.01 µM in data set [1], 0.0044 µM in data set [3] and 0.0179 µM in data set [4]. The pKa in data set [2] (setting [5]) stood at 9.6.

Turning to `CNC[C@H](c1ccc2ccccc2c1)[C@H](OCc1cccc(=O)n1C)c1ccccc1` [Compound 79], the Ki stood at 0.0144 µM in data set [1], 0.0064 µM in data set [3] and 0.0733 µM in data set [4]. In addition, the pKa in data set [2] (setting [5]) is 9.7.

Turning to `CNC[C@H](c1ccc2ccccc2c1)[C@H](O[C@H](C)C(=O)N1CCCC1)c1ccccc1` [Compound 81], the inhibition constant Ki in data set [1] was determined as 0.0147 µM; in data set [3] it was 0.013 µM; in data set [4], 1.36 µM. Further, the pKa in data set [2] (setting [5]) was 9.6.

Turning to `CNC[C@H](c1ccc2ccccc2c1)[C@H](OCc1nc(C(=O)OC)co1)c1ccccc1` [Compound 84], the Ki in data set [1] amounted to 0.0162 µM; in data set [3] it was 0.0033 µM; in data set [4], 0.0392 µM. Moreover, the pKa in data set [2] (setting [5]) worked out at 9.6.

For `CN1CCO[C@@H](c2ccccc2)[C@@H](c2ccc3ccccc3c2)C1` [Compound 123], the Ki worked out at 0.29 µM in data set [1], 0.012 µM in data set [3] and 0.379 µM in data set [4]. The pKa in data set [2] (setting [5]) came to 8.2. Also, the IC50 at CYP2D6 came out at 6.6 µM.

Regarding `CN1CCO[C@@H](c2ccccc2)[C@H](c2ccc3ccccc3c2)C1` [Compound 124], the Ki in data set [1] amounted to 0.338 µM; in data set [3], 0.167 µM; in data set [4] it was 0.0153 µM. Moreover, in data set [2] (setting [5]), the pKa was found to be 8.2. Besides, the IC50 at CYP2D6 worked out at 3 µM.

As to `CN1C[C@H](c2ccc3ccccc3c2)[C@@H](c2ccccc2)OCC1=O` [Compound 129], the Ki was 3.67 µM in data set [1], 3.37 µM in data set [3] and 0.0435 µM in data set [4]. Also, the IC50 at CYP3A4 and on CYP2D6 was 20 µM in each case.

For the compound `CNCC(CCc1ccccc1)[C@@H](O)c1ccccc1` (stereo partly shown) [Compound 147], the results for the Ki in data set [1], in data set [3] and in data set [4] were 0.0457 µM, 0.8 µM and 0.121 µM, respectively. In addition, in data set [2] (setting [5]), the pKa is 10.1.

The values are drawn from US9944618B2, “Inhibiting neurotransmitter reuptake” (Mayo Foundation for Medical Education and Research, priority 2013, dated 2018).
